Assay results reported in patent publication US10538532B2, “Hepatitis B antiviral agents” (ENANTA PHARMACEUTICALS, INC., priority 2016, dated 2020).
Read-outs that look alike come from different tables or passages of the source.

Tests used:
HBV = test: HepAD38 antiviral assay: reduction of viral product accumulation (virion DNA by qPCR, HBsAg or HBeAg by ELISA); format: cell-based, hepatitis B virus; conditions: HepAD38 cells, five days after compound addition, concentration reducing viral product accumulation by 50% relative to no drug controls, read-out: HepAD38 EC50
Summary of the method: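 HepAD38 cells were washed free of tetracycline, plated at 35,000 cells/well and given compounds diluted 1:200 from DMSO. After 5 days, or 8 days with media and compound refreshed on d2 and d5, virion DNA was measured by qPCR and HBsAg or HBeAg by ELISA. EC50 is the concentration giving 50% reduction of viral product versus no-drug controls.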

[1] = Compound toxicity, ATPLite total ATP levels; format: cell-based; conditions: human, HepAD38 cells, three days after compound addition, concentration reducing total ATP levels by 50% relative to no drug controls
Experimental: Methods: HepAD38 cells are maintained as previously reported (Ladner et al, Antimicrob. Agents Chemother. 1997, […], 1715). Briefly, cells are passaged upon attaining confluency in DMEM/F12 media in the presence of 10% FBS, Penn/Strep, 250 μg/mL G418, and 1 ug/ml tetracycline. Novel compounds are screened by first washing cells three times with PBS to remove tetracycline, and plating in 96 well plates at 35,000 cells/well. Compounds dissolved in DMSO are then diluted 1:200 into wells containing cells. Five days after compound addition, material is harvested for analysis. For an extended 8 day analysis, cells are plated and treated as described above, but media and compound are refreshed on d2 and d5 post initial treatment.
Compound toxicity is evaluated by seeding cells at 15,000 cells/well and treating with compound as described above.

[2] = Hepatitis B virus, HePAD38, 120 h

Row | SMILES | EC50 (HBV; [2]) [nM] | CC50 at 3 days ([1]; class symbols) [nM] | CC50 at 3 days ([1]; numeric bounds) [nM] | EC50 (HBV) [nM]
1 | O=C1NC[C@]2(O1)C1CCC2C[C@@H](S(=O)(=O)c2cc(C(=O)Nc3cc(F)c(F)c(F)c3)ccc2Cl)C1 [Example 260] | < 100 | > 25000 | – | –
2 | O=C(Nc1cc(F)c(F)c(F)c1)c1ccc(Cl)c(S(=O)(=O)[C@H]2CC3CCC(C2)[C@]3(O)CNS(=O)(=O)c2cccnc2)c1 [Example 295] | < 100 | – | > 12500 | –
3 | C[C@]1(O)CC2CC[C@@H](C1)[C@H]2S(=O)(=O)c1cc(C(=O)Nc2cc(F)c(F)c(F)c2)ccc1Cl [Example 282] | < 100 | > 25000 | – | –
4 | CC(c1ccncc1)S(=O)(=O)c1cc(C(=O)Nc2cc(F)c(F)c(F)c2)ccc1Cl (centres unmarked) [Example 80] | < 100 | 10000 to 25000 | – | –
5 | CS(=O)(=O)NC[C@]1(O)C2CCC1C[C@H](S(=O)(=O)c1cc(C(=O)Nc3cc(F)c(F)c(F)c3)ccc1Cl)C2 [Example 273] | < 100 | – | > 12500 | –
6 | N#C[C@]1(CO)CC2CC[C@@H](C1)[C@H]2S(=O)(=O)c1cc(C(=O)Nc2cc(F)c(F)c(F)c2)ccc1Cl [Example 292] | < 100 | 10000 to 25000 | – | –
7 | Cn1ccnc1[C@]1(O)CC2CC[C@@H](C1)[C@H]2S(=O)(=O)c1cc(C(=O)Nc2cc(F)c(F)c(F)c2)ccc1Cl [Example 329] | < 100 | – | > 6250 | –
8 | O=C(Nc1cc(F)c(F)c(F)c1)c1ccc(Cl)c(S(=O)(=O)[C@]2(F)CC[C@@H](O)CC2)c1 [Example 9] | 100 to 400 | 10000 to 25000 | – | –
9 | O=C(Nc1cc(F)c(F)c(F)c1)c1ccc(Cl)c(S(=O)(=O)Cc2ccncc2)c1 [Example 46] | 100 to 400 | > 25000 | – | –
10 | C[C@]1(S(=O)(=O)c2cc(C(=O)Nc3cc(F)c(F)c(F)c3)ccc2Cl)CC[C@H](O)CC1 [Example 17] | 100 to 400 | > 25000 | – | –
11 | O=C1NC[C@]2(CC3CC[C@@H](C2)[C@H]3S(=O)(=O)c2cc(C(=O)Nc3cc(F)c(F)c(F)c3)ccc2Cl)O1 [Example 285] | 100 to 400 | > 25000 | – | –
12 | COC(=O)NC1CC2CC[C@@H](C1)[C@H]2S(=O)(=O)c1cc(C(=O)Nc2cc(F)c(F)c(F)c2)ccc1Cl (some centres unmarked) [Example 321] | < 100 | > 25000 | – | –
13 | CC1=NO[C@@]2(C1)CC1CC[C@@H](C2)[C@H]1S(=O)(=O)c1cc(C(=O)Nc2cc(F)c(F)c(F)c2)ccc1Cl [Example 188] | < 100 | – | > 12500 | –
14 | O=C(Nc1cc(F)c(F)c(F)c1)c1ccc(Cl)c(S(=O)(=O)[C@H]2C3CC[C@H]2C[C@](O)(COCCO)C3)c1 [Example 319] | < 100 | > 25000 | – | –
15 | [N-]=[N+]=NC[C@]1(O)C2CCC1C[C@H](S(=O)(=O)c1cc(C(=O)Nc3cc(F)c(F)c(F)c3)ccc1Cl)C2 [Example 258] | < 100 | – | > 12500 | –
16 | N#CC[C@]1(O)C2CCC1C[C@@H](S(=O)(=O)c1cc(C(=O)Nc3cc(F)c(F)c(F)c3)ccc1Cl)C2 [Example 275] | < 100 | > 25000 | – | –
17 | O=C(Nc1cc(F)c(F)c(F)c1)c1ccc(Cl)c(S(=O)(=O)[C@H]2CC3CCC(C2)[C@]3(O)c2ccccn2)c1 [Example 308] | < 100 | > 25000 | – | –
18 | O=C1NC[C@@]2(CC3CC[C@@H](C2)[C@H]3S(=O)(=O)c2cc(C(=O)Nc3cc(F)c(F)c(F)c3)ccc2Cl)O1 [Example 306] | < 100 | – | > 12500 | –
19 | CS(=O)(=O)NC[C@]1(O)CC2CC[C@@H](C1)[C@H]2S(=O)(=O)c1cc(C(=O)Nc2cc(F)c(F)c(F)c2)ccc1Cl [Example 307] | < 100 | > 25000 | – | –
20 | COC(=O)N1C[C@]2(CC3CC[C@@H](C2)[C@H]3S(=O)(=O)c2cc(C(=O)Nc3cc(F)c(F)c(F)c3)ccc2Cl)OC1=O [Example 289] | 100 to 400 | – | > 12500 | –
21 | CS(=O)(=O)NC[C@]1(O)C2CCC1C[C@@H](S(=O)(=O)c1cc(C(=O)Nc3cc(F)c(F)c(F)c3)ccc1Cl)C2 [Example 259] | < 100 | – | > 12500 | –
22 | O=C(Nc1cc(F)c(F)c(F)c1)c1ccc(Cl)c(S(=O)(=O)[C@H]2CC3CCC(C2)[C@H]3c2ncc[nH]2)c1 [Example 303] | < 100 | < 10000 | – | –
23 | C=CCOC(=O)OC[C@]1(O)CC2CC[C@@H](C1)[C@H]2S(=O)(=O)c1cc(C(=O)Nc2cc(F)c(F)c(F)c2)ccc1Cl [Example 290] | < 100 | > 25000 | – | –
24 | NC[C@@]1(O)CC2CC[C@@H](C1)[C@H]2S(=O)(=O)c1cc(C(=O)Nc2cc(F)c(F)c(F)c2)ccc1Cl [Example 277] | 100 to 400 | < 10000 | – | –
25 | O=C(Nc1cc(F)c(F)c(F)c1)c1ccc(Cl)c(S(=O)(=O)[C@H]2CC3CCC(C2)[C@]3(O)CNS(=O)(=O)c2ccccn2)c1 [Example 296] | < 100 | – | > 6250 | –
26 | [N-]=[N+]=NC[C@@]1(O)CC2CC[C@@H](C1)[C@H]2S(=O)(=O)c1cc(C(=O)Nc2cc(F)c(F)c(F)c2)ccc1Cl [Example 271] | < 100 | – | > 12500 | –

Row | SMILES | EC50 (HBV; [2]) [nM] | CC50 at 3 days ([1]; class symbols) [nM] | CC50 at 3 days ([1]; numeric bounds) [nM] | EC50 (HBV) [nM]
27 | NC(=O)OCC1=C[C@@H]2CCC(C1)C2S(=O)(=O)c1cc(C(=O)Nc2cc(F)c(F)c(F)c2)ccc1Cl (some centres unmarked) [Example 262] | < 100 | – | – | –
28 | CC(O)[C@]1(O)CC2CC[C@@H](C1)[C@H]2S(=O)(=O)c1cc(C(=O)Nc2cc(F)c(F)c(F)c2)ccc1Cl (some centres unmarked) [Example 136] | < 100 | – | – | –
29 | O=C(Nc1cc(F)c(F)cn1)c1ccc(Cl)c(S(=O)(=O)[C@H]2CC[C@H](O)CC2)c1 [Example 43] | > 400 | – | – | –
30 | C=CCOC[C@]1(O)CC2CC[C@@H](C1)[C@H]2S(=O)(=O)c1cc(C(=O)Nc2cc(F)c(F)c(F)c2)ccc1Cl [Example 270] | < 100 | – | – | –
31 | CC(C)(C)OC(=O)N1C2CCC1CC(S(=O)(=O)c1cc(C(=O)Nc3cc(F)c(F)c(F)c3)ccc1Cl)C2 (centres unmarked) [Example 119] | – | – | – | > 400
32 | O=C(Nc1cc(F)c(F)c(F)c1)c1ccc(Cl)c(S(=O)(=O)C[C@H]2C3CC[C@H]2C[C@](O)(CO)C3)c1 [Example 177] | < 100 | – | – | –
33 | Cc1c(NC(=O)c2ccc(Cl)c(S(=O)(=O)[C@]3(C)CC[C@H](O)CC3)c2)cc(F)c(F)c1F [Example 18] | 100 to 400 | – | – | –
34 | O=C(Nc1cc(F)c(F)c(F)c1)c1ccc(Cl)c(S(=O)(=O)[C@H]2C3CC[C@H]2C[C@](O)(/C=N/Oc2ccccc2)C3)c1 [Example 157] | < 100 | – | – | –
35 | COC(=O)[C@@H](NC[C@]1(O)C2CCC1C[C@@H](S(=O)(=O)c1cc(C(=O)Nc3cc(F)c(F)c(F)c3)ccc1Cl)C2)C(C)C [Example 339] | > 400 | – | – | –
36 | O=C(Nc1cc(F)c(F)c(F)c1)c1ccc(Cl)c(S(=O)(=O)[C@H]2C3CC[C@H]2C[C@](O)(/C=N/OCc2ccc(C(F)(F)F)cc2)C3)c1 [Example 231] | 100 to 400 | – | – | –
37 | O=C(Nc1cc(F)c(F)c(F)c1)c1ccc(Cl)c(S(=O)(=O)[C@H]2CC3CCC(C2)[C@H]3CO)c1 [Example 249] | 100 to 400 | – | – | –
38 | O=C(Nc1cc(F)c(F)c(F)c1)c1ccc(Cl)c(S(=O)(=O)[C@H]2CC[C@H](F)CC2)c1 [Example 21] | 100 to 400 | – | – | –
39 | COc1cc(NC(=O)c2ccc(Cl)c(S(=O)(=O)[C@H]3CC[C@H](O)CC3)c2)ccc1F [Example 26] | > 400 | – | – | –
40 | [2H]C1([2H])C2C[C@@](O)(CO)C[C@H](C1([2H])[2H])[C@@]2([2H])S(=O)(=O)c1cc(C(=O)Nc2cc(F)c(F)c(F)c2)ccc1Cl [Example 159] | < 100 | – | – | –
41 | O=C(Nc1cc(F)c(F)c(F)c1)c1ccc(Cl)c([S+]([O-])Cc2ccncc2)c1 (centres unmarked) [Example 47] | > 400 | – | – | –
42 | O=C(Nc1cc(F)c(F)c(F)c1)c1ccc(Cl)c(S(=O)(=O)[C@H]2C3CC[C@H]2C[C@](O)(/C=N/OCc2c(F)c(F)c(F)c(F)c2F)C3)c1 [Example 235] | 100 to 400 | – | – | –
43 | CCCSc1cc(C(=O)Nc2cc(F)c(F)c(F)c2)ccc1Cl [Example 13] | > 400 | – | – | –
44 | O=C(Nc1cc(F)c(F)c(F)c1)c1ccc(Cl)c(S[C@H]2C3CC4C[C@H](C3)C[C@@H]2C4)c1 [Example 174] | > 400 | – | – | –
45 | CC[C@]1(O)CC2CC[C@@H](C1)[C@H]2S(=O)(=O)c1cc(C(=O)Nc2cc(F)c(F)c(F)c2)ccc1Cl [Example 268] | 100 to 400 | – | – | –
46 | CCOC(=O)C(Cc1ccncc1)S(=O)(=O)c1cc(C(=O)Nc2cc(F)c(F)c(F)c2)ccc1Cl (centres unmarked) [Example 103] | > 400 | – | – | –
47 | O=C(Nc1cc(F)c(F)c(F)c1)c1ccc(Cl)c(S(=O)(=O)C[C@H]2CC[C@H](O)CC2)c1 [Example 111] | < 100 | – | – | –
48 | O=C(Nc1cc(F)c(F)c(F)c1)c1ccc(Cl)c(S(=O)(=O)C[C@@H]2C3CC[C@H]2C[C@@H](O)C3)c1 [Example 181] | < 100 | – | – | –
49 | O=C(Nc1cc(F)c(F)c(F)c1)c1ccc(Cl)c(S(=O)(=O)C[C@H]2OC[C@H](O)[C@@H]2O)c1 [Example 108] | > 400 | – | – | –
50 | O=C(Nc1cc(F)c(F)c(F)c1)c1ccc(Cl)c(S(=O)(=O)C[C@H]2C3CCC2C[C@H](O)C3)c1 [Example 194] | < 100 | – | – | –
51 | CN(C)c1ccc(C(=O)Nc2cc(F)c(F)c(F)c2)cc1S(=O)(=O)[C@H]1C2CC[C@H]1C[C@]1(CO1)C2 [Example 143] | > 400 | – | – | –
